This is an account of results in patent US5292736A, “Morpholinoalkylindenes as antiglaucoma agents” (Sterling Winthrop Inc., priority 1993, dated 1994).

Read-outs that look alike come from different tables or passages of the source.

Assay [1] addresses T1, cannabinoid receptor (Rattus norvegicus, UniProt P20272).
T1 construct: Brain tissue from rats was homogenized; from tissue; host or cells: rat brain, washed homogenate membranes
Briefly: cannabinoid receptor binding test (CR), predictive of antiglaucoma activity. The procedure:
(§1) In standard biological test procedures, compounds of formula I were tested for analgesic and cannabinoid receptor activity. The mouse vas deferens test correlates well with analgesic activity and has long been used to screen for such activity. Cannabinoid receptor binding is characteristic and predictive of the efficacy of intraocular pressure reducing compounds and was thus used to test the compounds of formula I for antiglaucoma activity.
Data from the cannabinoid receptor binding test (CR), predictive of antiglaucoma activity, was obtained as follows:
Brain tissue from rats was homogenized in ice cold 20 mM HEPES-NaOH, pH 7.0, diluted approximately 1:100 (w/v) with the same buffer and centrifuged at 48,000 g for 10 minutes at 4° C. The pellet was washed by resuspension and centrifugation as above. The final pellet was suspended (1:120 w/v) in 20 mM HEPES-NaOH, pH 7.0 and stored on ice for use within 1 hour.
Compounds (10 mM) were solubilized in a mixture of 0.3 N methane sulfonic acid - 13.5% ethanol. Cannabinoids were dissolved in absolute ethanol. Other compounds were dissolved in dimethylsulfoxide (DMSO). All compounds were diluted in 20 mM HEPES, pH 7.0 containing 5 mg/ml bovine serum albumin (BSA).
The final assay concentration of BSA was 1.0 mg/ml in these experiments. Final assay concentrations of ≤50 mM ethanol, ≤1×10^-3 N methane sulfonic acid, ≤2.5 mM ethanol+3×10^-4 N methane sulfonic acid or ≤3% DMSO had no effect on specific binding. The possible effects of all vehicles were controlled in each assay.
The assay was started with the addition of homogenate and the tubes incubated at 30° C. for 90 min in a shaking waterbath. Each tube contained 20 mM HEPES-NaOH buffer, pH 7.0, 1.0 mg/ml BSA, competing drug or vehicle, and 100-125 μg membrane protein in a 1 ml incubation volume. Saturation studies were conducted over 3 log units of radioligand concentration (0.1-22 nM). Specific binding was defined as the difference in binding in the presence and absence of 1.0 μM unlabeled 2-[(3-chloro-4-hydroxyphenyl)amino]benzene methanol, a molecule that is known to […] bind to cannabinoid receptors.
Samples were filtered over Whatman GF/B filters with 20 ml of 20 mM HEPES, pH 7.0, containing 0.5 mg/ml BSA. Radioactivity on the filters, expressed in dpm, was measured by liquid scintillation spectrometry. Assays were conducted in triplicate and experiments were repeated at least three times.
The results for the CR test are IC50 concentrations (in nM) or % inhibition at 1 μM and 30 μM concentrations.

The subject of assay [2] is acetylcholine-induced abdominal constriction. The experiment in a line: acetylcholine-induced abdominal constriction test (ACH), oral. Format: in vivo. To be noted: oral administration. An excerpt:
Data obtained by the oral administration of the invention in the acetylcholine-induced abdominal constriction test (ACH), a measure of analgesic effectiveness, are expressed in the table below as the ED50 in mg/kg or as the percent inhibition at a given dose level in mg/kg. The acetyl choline-induced abdominal constriction test (ACH) is described in Brit. J. Pharmacol., 32: 295 (1968) and U.S. Pat. No. 4,581,534, incorporated herein by reference.

Assay [3] has as its system mouse vas deferens. Briefly: mouse vas deferens test (MVD), screening for analgesic activity. Format: cell-based. To be noted: considered active at 5.0 μM or less. The procedure:
as §1
The mouse vas deferens test (MVD), a means of screening for analgesic activity, is disclosed in U.S. Pat. No. 4,840,950, which is incorporated herein by reference.

The mark [4] stands for this setting: 1 μM; rat brain membranes, pH 7.0, 30° C., 90 min.
[5] abbreviates: 30 μM; rat brain membranes, pH 7.0, 30° C., 90 min.
Setting [6] is: rat brain membranes, pH 7.0, 30° C., 90 min; read-out: CR IC50.

T1 sequence (P20272 whole entry): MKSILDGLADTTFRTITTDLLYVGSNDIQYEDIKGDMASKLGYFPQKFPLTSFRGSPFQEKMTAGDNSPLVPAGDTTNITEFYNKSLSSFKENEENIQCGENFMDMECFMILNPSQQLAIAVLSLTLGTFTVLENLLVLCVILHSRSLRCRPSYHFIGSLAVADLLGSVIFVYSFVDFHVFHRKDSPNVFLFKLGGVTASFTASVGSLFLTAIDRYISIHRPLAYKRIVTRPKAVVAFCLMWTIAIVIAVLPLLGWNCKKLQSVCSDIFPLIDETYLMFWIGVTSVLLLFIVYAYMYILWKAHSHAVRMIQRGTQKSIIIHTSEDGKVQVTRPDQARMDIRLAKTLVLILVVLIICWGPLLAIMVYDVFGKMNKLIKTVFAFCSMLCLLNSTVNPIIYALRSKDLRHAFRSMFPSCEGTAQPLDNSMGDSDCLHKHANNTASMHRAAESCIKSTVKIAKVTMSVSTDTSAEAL

In general, inhibition refers to the relative decrease from the control value, in per cent. For orientation: ED50 means the dose at which the effect has come halfway, by size or by number of responders. High values mean weaker potency, low ones greater potency. Turning to `CSc1ccc(C=C2C=C(CCN3CCOCC3)c3ccccc32)cc1` [Example 4], in assay [1] (setting [4]), the inhibition at 1 µM was 96%. The compound further had an ED50 in assay [2] of 50 mg/kg.
A word on the IC50: it is the midpoint of a concentration-inhibition curve. `C(=C1C=C(CCN2CCOCC2)c2ccccc21)c1ccccc1` [Example 2] came in with a half-inhibitory concentration (IC50) in assay [3] of 79 nM. For the same compound, the inhibition at 1 µM in assay [1] (setting [4]) is 33%. In assay [2], this compound yielded a 50% effective dose (ED50) of 65 mg/kg.
Regarding `C(=Cc1ccccc1)C=C1C=C(CCN2CCOCC2)c2ccccc21` [Example 14], in assay [1] (setting [4]), the inhibition at 1 µM is 68%. The “Ach percent inhibition at 100 mg/kg” value in assay [2] stood at 20%.
With `Fc1ccc(C=C2C=C(CCCN3CCOCC3)c3ccccc32)cc1` [Example 5], the inhibition at 30 µM in assay [1] (setting [5]) is 5%. The compound further gave an ED50 in assay [2] of 52 mg/kg.
Regarding `COc1ccc(C=C2C(C)=C(CCN3CCOCC3)c3ccccc32)cc1` [Example 3], the inhibition at 1 µM in assay [1] (setting [4]) was 45%. Moreover, in assay [2], the “Ach percent inhibition at 100 mg/kg” value is 30%.
`COc1ccc(C=C2C=C(CCCN3CCOCC3)c3ccccc32)c2ccccc12` [Example 15]: in assay [1] (setting [6]), the concentration for half-maximal inhibition (IC50) is 12 nM. For the same compound, the “Ach percent inhibition at 100 mg/kg” value in assay [2] is reported as 10%.
Consider `C[S+]([O-])c1ccc(C=C2C=C(CCN3CCOCC3)c3ccccc32)cc1` (centres unmarked) [Example 21, 4-[2-[[1-[4-(methylsulfinyl)phenyl]methylene]-1H-inden-3-yl]ethyl]morpholine], for which inhibition in assay [3] was half-maximal at 193 nM (IC50). The ED50 in assay [2] was 25 mg/kg.
Compound `COc1ccc(C=C2C(C)=C(CCN3CCOCC3)c3ccccc32)c2ccccc12` [Example 16] displayed an IC50 in assay [3] of 350 nM. The “Ach percent inhibition at 100 mg/kg” value in assay [2] is on record as 30%.
Turning to `COc1ccc(C=C2C=C(CCN3CCOCC3)c3ccccc32)cc1` [Example 1, 4-[2-[1-[(4-methoxyphenyl)methylene]-1H-inden-3-yl)ethyl]morpholine], the IC50 was 80 nM in assay [3] and 58 nM in assay [1] (read-out: CR IC50; rat brain membranes, pH 7.0, 30° C., 90 min). This compound also returned a 50% effective dose (ED50) in assay [2] of 46 mg/kg.
As to `COc1ccc(C=C2C=C(CCN3CCOCC3)c3ccccc32)c2ccccc12` [Example 8], the concentration for half-maximal inhibition (IC50) in assay [3] was 8 nM; in assay [1] (setting [6]), 0.9 nM. This compound also showed a median effective dose (ED50) in assay [2] of 3.2 mg/kg.
Taken in the same sequence, the figures for `CC1=C(CCN2CCOCC2)c2ccccc2C1=Cc1cccc2ccccc12` [Example 10] were 45 nM, 10 nM and 34 mg/kg.
Consider `Oc1ccc(C=C2C=C(CCN3CCOCC3)c3ccccc32)c2ccccc12` [Example 19], for which the inhibition at 1 µM in assay [1] (setting [4]) is 97%. In assay [2], this compound displayed a 50% effective dose (ED50) of 2.7 mg/kg.
As for `CC1=C(CCN2CCOCC2)c2ccccc2C1=Cc1ccnc2ccccc12` [Example 11], 1650 nM corresponded to half-maximal inhibition in assay [3] (IC50). The “Ach percent inhibition at 100 mg/kg” value in assay [2] is 40%.
In assay [3], `C(=C1C=C(CCN2CCOCC2)c2ccccc21)c1cccc2[nH]ccc12` [Example 18] came in with an IC50 of 310 nM. This compound also had an ED50 in assay [2] of 15 mg/kg.
`C(=C1C=C(CCN2CCOCC2)c2ccccc21)c1c2ccccc2cc2ccccc12` [Example 20] showed an IC50 in assay [3] of 812 nM.
Regarding `COc1ccc(C=C2C=C(CCN3CCOCC3)c3ccccc32)cc1OC` [Example 13], the values for the IC50 in assay [3] and in assay [1] (setting [6]) were 19 nM and 28 nM, respectively. In assay [2], this compound came in with a median effective dose (ED50) of 19 mg/kg.
Consider `C(=C1C=C(CCN2CCOCC2)c2ccccc21)c1cccc2ccccc12` [Example 9], for which the half-maximal inhibitory concentration (IC50) was 7 nM in assay [3] and 1 nM in assay [1] (setting [6]). In assay [2] (10 mg/kg), the “Ach percent inhibition at 10 mg/kg” value is on record as 83%.
With `N#Cc1ccc(C=C2C=C(CCN3CCOCC3)c3ccccc32)cc1` [Example 17], in assay [1] (setting [4]), the inhibition at 1 µM was 76%. The compound also had an ED50 in assay [2] of 100 mg/kg.
In the case of `CN(C)c1ccc(C=C2C=C(CCN3CCOCC3)c3ccccc32)cc1` [Example 6], the inhibition at 30 µM in assay [1] (setting [5]) was 88%. Further, the ED50 in assay [2] amounted to 103 mg/kg.
On to `COc1ccc(C(=O)OC(=C2C=C(CCN3CCOCC3)c3ccccc32)c2ccc(OC)cc2)cc1` [Example 22, (4-methoxyphenyl)[3-(2-[4-morpholinyl)ethyl)-1H-inden-1-ylidine]methyl 4-methoxy benzoate], for which the inhibition at 1 µM in assay [1] (setting [4]) is 51%. For the same compound, the “Ach percent inhibition at 100 mg/kg” value in assay [2] is 10%.
As for `C(=C1C=C(CCCN2CCOCC2)c2ccccc21)c1cccc2ccccc12` [Example 12], the half-maximal inhibitory concentration (IC50) in assay [3] was found to be 96 nM. Besides, the inhibition at 1 µM in assay [1] (setting [4]) is 97%. Also, the “Ach percent inhibition at 100 mg/kg” value in assay [2] is on record as 30%.
`Fc1ccccc1C=C1C=C(CCN2CCOCC2)c2ccccc21` [Example 7]: the inhibition at 30 µM in assay [1] (setting [5]) was 78%. In assay [2], this compound returned an ED50 of 86 mg/kg.
